{
  "source": "the NIST ThermoML archive (doi:10.1021/je100864e)",
  "experiment": "osmotic coefficient (dimensionless); mn = molality of the nth substance listed, in mol/kg",
  "conditions": "298.15 K, Liquid, isopiestic method",
  "note": "Numbers after ± are expanded uncertainties.",
  "data": [
    {"smiles": "O=C([O-])CC(O)(CC(=O)[O-])C(=O)O.[Na+].[Na+]", "note": "[disodium hydrogen citrate] + O", "values": [
      {"measurement": "osmotic coefficient", "setting": "m1 = 0.2817", "value": "0.806 ± 0.01"},
      {"measurement": "osmotic coefficient", "setting": "m1 = 0.2939", "value": "0.792 ± 0.01"},
      {"measurement": "osmotic coefficient", "setting": "m1 = 0.3096", "value": "0.77 ± 0.012"},
      {"measurement": "osmotic coefficient", "setting": "m1 = 0.3227", "value": "0.773 ± 0.011"},
      {"measurement": "osmotic coefficient", "setting": "m1 = 0.3856", "value": "0.759 ± 0.012"},
      {"measurement": "osmotic coefficient", "setting": "m1 = 0.4011", "value": "0.753 ± 0.012"},
      {"measurement": "osmotic coefficient", "setting": "m1 = 0.4258", "value": "0.75 ± 0.013"},
      {"measurement": "osmotic coefficient", "setting": "m1 = 0.4592", "value": "0.724 ± 0.014"},
      {"measurement": "osmotic coefficient", "setting": "m1 = 0.4761", "value": "0.726 ± 0.014"},
      {"measurement": "osmotic coefficient", "setting": "m1 = 0.4822", "value": "0.728 ± 0.014"},
      {"measurement": "osmotic coefficient", "setting": "m1 = 0.5501", "value": "0.714 ± 0.014"},
      {"measurement": "osmotic coefficient", "setting": "m1 = 0.6381", "value": "0.71 ± 0.015"},
      {"measurement": "osmotic coefficient", "setting": "m1 = 0.6827", "value": "0.706 ± 0.015"},
      {"measurement": "osmotic coefficient", "setting": "m1 = 0.6915", "value": "0.705 ± 0.015"},
      {"measurement": "osmotic coefficient", "setting": "m1 = 0.6951", "value": "0.707 ± 0.015"},
      {"measurement": "osmotic coefficient", "setting": "m1 = 0.6997", "value": "0.708 ± 0.015"},
      {"measurement": "osmotic coefficient", "setting": "m1 = 1.018", "value": "0.689 ± 0.016"},
      {"measurement": "osmotic coefficient", "setting": "m1 = 1.09", "value": "0.688 ± 0.016"},
      {"measurement": "osmotic coefficient", "setting": "m1 = 1.107", "value": "0.682 ± 0.016"},
      {"measurement": "osmotic coefficient", "setting": "m1 = 1.246", "value": "0.688 ± 0.016"},
      {"measurement": "osmotic coefficient", "setting": "m1 = 1.329", "value": "0.682 ± 0.016"},
      {"measurement": "osmotic coefficient", "setting": "m1 = 1.579", "value": "0.694 ± 0.015"},
      {"measurement": "osmotic coefficient", "setting": "m1 = 1.635", "value": "0.694 ± 0.015"},
      {"measurement": "osmotic coefficient", "setting": "m1 = 1.659", "value": "0.69 ± 0.016"},
      {"measurement": "osmotic coefficient", "setting": "m1 = 1.731", "value": "0.69 ± 0.016"},
      {"measurement": "osmotic coefficient", "setting": "m1 = 1.788", "value": "0.701 ± 0.015"},
      {"measurement": "osmotic coefficient", "setting": "m1 = 1.928", "value": "0.702 ± 0.015"},
      {"measurement": "osmotic coefficient", "setting": "m1 = 1.934", "value": "0.693 ± 0.015"},
      {"measurement": "osmotic coefficient", "setting": "m1 = 2", "value": "0.704 ± 0.015"},
      {"measurement": "osmotic coefficient", "setting": "m1 = 2.327", "value": "0.711 ± 0.014"},
      {"measurement": "osmotic coefficient", "setting": "m1 = 2.393", "value": "0.712 ± 0.014"},
      {"measurement": "osmotic coefficient", "setting": "m1 = 2.439", "value": "0.711 ± 0.014"}
    ]},
    {"smiles": "O=C([O-])CC(O)(CC(=O)O)C(=O)O.[Na+]", "note": "[sodium dihydrogen citrate] + O", "values": [
      {"measurement": "osmotic coefficient", "setting": "m1 = 0.3252", "value": "0.849 ± 0.008"},
      {"measurement": "osmotic coefficient", "setting": "m1 = 0.4619", "value": "0.829 ± 0.009"},
      {"measurement": "osmotic coefficient", "setting": "m1 = 0.5944", "value": "0.82 ± 0.009"},
      {"measurement": "osmotic coefficient", "setting": "m1 = 0.7158", "value": "0.803 ± 0.01"},
      {"measurement": "osmotic coefficient", "setting": "m1 = 0.7377", "value": "0.81 ± 0.01"},
      {"measurement": "osmotic coefficient", "setting": "m1 = 0.7458", "value": "0.805 ± 0.01"},
      {"measurement": "osmotic coefficient", "setting": "m1 = 0.7565", "value": "0.801 ± 0.01"},
      {"measurement": "osmotic coefficient", "setting": "m1 = 0.7666", "value": "0.798 ± 0.01"},
      {"measurement": "osmotic coefficient", "setting": "m1 = 0.78", "value": "0.81 ± 0.01"},
      {"measurement": "osmotic coefficient", "setting": "m1 = 0.9089", "value": "0.801 ± 0.01"},
      {"measurement": "osmotic coefficient", "setting": "m1 = 1.096", "value": "0.813 ± 0.009"}
    ]}
  ]
}
